Assays:
cynomolgus Siglec-2/CD22 = cynomolgus Siglec-2/CD22 (Macaca fascicularis, UniProt A0A2K5WCZ6); assay: biochemical; assay type: binding; conditions: SPR, steady-state analysis; read-out: Affinity cyno CD22
Outline: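 Compound binding measured by steady-state SPR analysis, 120 s dissociation, in HEPES-NaCl-Tween buffer pH 7.5 containing 1% DMSO, DMSO solvent-corrected. Surface: cyno CD22, sialic acids first stripped by SialoExo for 4 h at 37° C., then amine-coupled onto CM5.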

[1] = molecular target: T1, mouse Siglec-2-Fc-Avi (CD22) (Mus musculus, UniProt P35329); assay: SPR binding affinity to mouse CD22; conditions: steady-state analysis
T1 construct: made in house
T1 sequence (P35329 22-708 limits assumed): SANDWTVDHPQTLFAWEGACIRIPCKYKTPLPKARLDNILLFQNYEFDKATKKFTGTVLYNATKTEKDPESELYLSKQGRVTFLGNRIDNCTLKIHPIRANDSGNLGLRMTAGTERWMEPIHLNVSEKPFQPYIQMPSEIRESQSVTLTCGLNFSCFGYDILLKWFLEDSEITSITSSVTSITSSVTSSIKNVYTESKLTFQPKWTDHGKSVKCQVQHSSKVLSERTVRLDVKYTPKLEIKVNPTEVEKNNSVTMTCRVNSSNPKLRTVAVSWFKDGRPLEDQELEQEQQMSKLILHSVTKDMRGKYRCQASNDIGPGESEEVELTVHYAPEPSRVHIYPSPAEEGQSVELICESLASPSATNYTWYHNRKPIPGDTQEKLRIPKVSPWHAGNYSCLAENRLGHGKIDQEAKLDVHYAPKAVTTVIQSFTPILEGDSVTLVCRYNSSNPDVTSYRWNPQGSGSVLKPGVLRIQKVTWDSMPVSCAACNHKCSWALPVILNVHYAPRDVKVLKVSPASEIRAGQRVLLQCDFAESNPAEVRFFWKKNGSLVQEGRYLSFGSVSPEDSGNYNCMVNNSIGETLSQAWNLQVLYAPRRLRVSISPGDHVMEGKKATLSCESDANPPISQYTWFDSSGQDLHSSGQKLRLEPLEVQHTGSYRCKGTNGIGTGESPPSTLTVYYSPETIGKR
Outline: (§1)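 Native sialic acid residues are removed from the receptor enzymatically (4 hours at 37° C.) prior to streptavidin capture of the biotinylated protein. Ligand compounds then flow over in HEPES-buffered saline, pH 7.5, containing 0.05% Tween-20 and 1% DMSO, and binding is evaluated at steady state.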

[2] = molecular target: T2, human Siglec-2/CD22 protein (Homo sapiens, UniProt P20273); assay: SPR binding affinity to human CD22; conditions: steady-state analysis
T2 construct: purchased Acro Biosystems SI2-H82E3
T2 sequence (P20273 20-847): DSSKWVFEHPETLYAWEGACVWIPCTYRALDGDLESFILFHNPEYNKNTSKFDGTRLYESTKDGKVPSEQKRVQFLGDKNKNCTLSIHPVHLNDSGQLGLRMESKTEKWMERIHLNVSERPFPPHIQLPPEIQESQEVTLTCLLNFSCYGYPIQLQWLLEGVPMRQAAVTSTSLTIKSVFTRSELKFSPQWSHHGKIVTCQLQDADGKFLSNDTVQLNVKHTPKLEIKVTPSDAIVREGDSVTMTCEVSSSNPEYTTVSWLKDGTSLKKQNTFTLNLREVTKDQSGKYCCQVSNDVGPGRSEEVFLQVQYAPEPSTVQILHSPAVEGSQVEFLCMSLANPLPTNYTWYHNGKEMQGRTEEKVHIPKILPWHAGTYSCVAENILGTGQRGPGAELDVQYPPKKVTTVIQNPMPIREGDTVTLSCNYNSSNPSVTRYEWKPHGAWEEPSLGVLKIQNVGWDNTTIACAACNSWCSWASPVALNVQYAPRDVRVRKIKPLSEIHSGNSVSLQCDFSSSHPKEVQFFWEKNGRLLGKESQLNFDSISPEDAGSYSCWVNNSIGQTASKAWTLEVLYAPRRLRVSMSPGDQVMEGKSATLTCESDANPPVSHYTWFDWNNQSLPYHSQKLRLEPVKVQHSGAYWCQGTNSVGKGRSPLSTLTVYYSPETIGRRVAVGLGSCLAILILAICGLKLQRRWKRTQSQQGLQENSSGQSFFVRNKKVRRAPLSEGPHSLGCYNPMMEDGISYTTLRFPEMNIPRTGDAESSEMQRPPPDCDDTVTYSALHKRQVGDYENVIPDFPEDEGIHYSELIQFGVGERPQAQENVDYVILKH
Outline: as §1

cynomolgus Siglec-2/CD22, sequence (A0A2K5WCZ6 entry or part of it): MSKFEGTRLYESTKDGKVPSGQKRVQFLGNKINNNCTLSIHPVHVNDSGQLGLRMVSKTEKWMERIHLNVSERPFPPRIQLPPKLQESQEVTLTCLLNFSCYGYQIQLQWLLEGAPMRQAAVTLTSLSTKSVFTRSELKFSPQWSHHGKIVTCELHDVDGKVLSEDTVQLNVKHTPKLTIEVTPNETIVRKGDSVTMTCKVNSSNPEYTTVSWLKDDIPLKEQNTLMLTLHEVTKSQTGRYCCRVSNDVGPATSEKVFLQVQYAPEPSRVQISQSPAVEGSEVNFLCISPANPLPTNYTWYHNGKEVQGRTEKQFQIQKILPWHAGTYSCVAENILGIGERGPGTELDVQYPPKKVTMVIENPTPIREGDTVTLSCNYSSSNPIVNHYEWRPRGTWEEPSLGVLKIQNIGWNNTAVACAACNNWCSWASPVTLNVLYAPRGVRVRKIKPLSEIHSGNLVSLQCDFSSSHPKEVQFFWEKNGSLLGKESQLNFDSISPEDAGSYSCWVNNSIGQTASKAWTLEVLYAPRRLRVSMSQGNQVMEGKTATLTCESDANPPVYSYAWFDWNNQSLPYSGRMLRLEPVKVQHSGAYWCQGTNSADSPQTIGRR

Compound	Kd (cynomolgus Siglec-2/CD22)	Kd [1]	Kd [2]
C#CCOCCOCCO[C@]1(C(=O)O)C[C@H](O)[C@@H](NC(=O)CO)[C@H]([C@@H](F)[C@H](O)CNC(=O)Cc2ccc(-c3ccccc3)cc2)O1 [Compound 32]	> 10 µM	> 10 µM	> 10 µM
C#CCOCCOCCO[C@]1(C(=O)O)C[C@H](O)[C@@H](NC(=O)CS)[C@H]([C@H](O)[C@H](O)CNC(=O)Cc2ccc(-c3ccc(O)cc3)cc2)O1 [Compound 69, (2R,4S,5R,6R)-6-((1R,2R)-1,2-dihydroxy-3-(2-(4′-hydroxy-[1,1′-biphenyl]-4-yl)acetamido)propyl)-4-hydroxy-5-(2-mercaptoacetamido)-2-(2-(2-(prop-2-yn-1-yloxy)ethoxy)ethoxy)tetrahydro-2H-pyran-2-carboxylic acid]	> 10 µM	> 10 µM	1 to 10 µM
C#CCCOc1ccc(CS[C@]2(C(=O)O)C[C@H](O)[C@@H](NC(=O)CO)[C@H]([C@H](O)[C@H](O)CNC(=O)Cc3ccc(Cl)c(O)c3)O2)cc1 [Compound 131, (2S,4S,5R,6R)-2-((4-(but-3-yn-1-yloxy)benzyl)thio)-6-((1R,2R)-3-(2-(4-chloro-3-hydroxyphenyl)acetamido)-1,2-dihydroxypropyl)-4-hydroxy-5-(2-hydroxyacetamido)tetrahydro-2H-pyran-2-carboxylic acid]	< 1 µM	< 1 µM	< 1 µM
C#CCCOc1ccc(CO[C@]2(C(=O)O)C[C@H](O)[C@@H](NC(=O)CO)[C@H]([C@H](O)[C@H](O)CNC(=O)C(OC)(c3ccccc3)C(F)(F)F)O2)cc1 (stereo partly drawn) [Compound 171, (2R,4S,5R,6R)-2-((4-(but-3-yn-1-yloxy)benzyl)oxy)-6-((1R,2R)-1,2-dihydroxy-3-(3,3,3-trifluoro-2-methoxy-2-phenylpropanamido)propyl)-4-hydroxy-5-(2-hydroxyacetamido)tetrahydro-2H-pyran-2-carboxylic acid]	1 to 10 µM	1 to 10 µM	1 to 10 µM
C#CCCOc1ccc(CO[C@]2(C(=O)O)C[C@H](O)[C@@H](NC(=O)CO)[C@H]([C@H](O)[C@H](O)CNC(=O)Cc3ccccc3NC(C)=O)O2)cc1 [Compound 163, (2R,4S,5R,6R)-6-((1R,2R)-3-(2-(2-acetamidophenyl)acetamido)-1,2-dihydroxypropyl)-2-((4-(but-3-yn-1-yloxy)benzyl)oxy)-4-hydroxy-5-(2-hydroxyacetamido)tetrahydro-2H-pyran-2-carboxylic acid]	1 to 10 µM	1 to 10 µM	1 to 10 µM

— patent US20250064941A1, “SIGLEC LIGANDS, CONJUGATES, AND METHODS OF USE THEREOF” (Osprey Biopharmaceuticals, Inc., priority 2023, published 2025)
